Experimental data taken from patent publication US8535897B2, “Assays for non-apoptotic cell death and uses thereof” (The Trustees of Columbia University in the City of New York, priority 2006, dated 2013).

Legend:
Assay type in all cases: cell-based, human
[1] = test system: BJ-TERT/LT/ST/RASV12 cells; experiment: Nuclear morphology, fluorescence microscopy (Hoechst 33342)
Description: DNA was stained used Hoechst 33342.
To characterize the type of cell death induced by erastin, the effect of erastin was tested alongside camptothecin and staurosporine, which induce apoptotic cell death^39. Apoptosis is characterized by alterations in nuclear morphology, including pyknosis, karyorhexis and margination of chromatin^93. Nuclear morphology of camptothecin-treated and erastin-treated BJ-TERT/LT/ST/RAS^V12 cells was monitored using fluorescence microscopy. […] Apoptosis-inducing compounds (staurosporine and/or camptothecin) were tested alongside erastin in all of these assays to confirm the functionality of the assay. […] Therefore, in certain aspects the invention provides a genotype-selective anti-tumor agent which induces cell death via a non-apoptotic mechanism of oxidative cell death.

PARP1 = PARP1 cleavage, western blot; conditions: BJ-TERT/LT/ST/RAS^V12; staurosporine 1 μM 6 h, camptothecin 1 μM 18 h, erastin 20 μg/mL
Description: BJ-TERT/LT/ST/RAS^V12 tumor cells were seeded in six-well dishes, incubated overnight at 37° C. with 5% CO2 and were treated with nothing (NT), staurosporine (ST, 1 μM) for 6 h, camptothecin (C, 1 μM) for 18 h, or erastin (20 μg/mL) for the indicated time, lysed and analyzed by western blot with an anti-PARP1 antibody. A relatively high concentration of erastin was used to ensure loss of PARP cleavage was not due to a concentration-dependent effect.
For western blots, medium was aspirated, and each dish was washed twice with 10 mL of ice-cold PBS. Cells were lysed with 200 μL of buffer (50 mM HEPES, 40 mM NaCl, 2 mM EDTA, 0.5% Triton-X, 1.5 mM sodium orthovanadate, 50 mM NaF, 10 mM Na Pyrophosphate, 10 mM Na B-glycerophosphate and protease inhibitor tablet, pH 7.4). […]

[2] = test system: BJ-TERT/LT/ST/RASV12 cells; experiment: Annexin V staining; conditions: erastin 9 μM; camptothecin 1 μM
Description: The percentage of cells in the indicated M1 region were 6%, 6%, and 38% in untreated, erastin-treated (9 μM), and camptothecin-treated (1 μM), respectively.

cytochrome c = experiment: Cytochrome c release from mitochondria; conditions: BJ-TERT/LT/ST/RAS^V12; staurosporine 1 μM or erastin 20 μg/mL for 6 h
Description: BJ-TERT/LT/ST/RAS^V12 cells were seeded in polystyrene 100×20 mm dishes in 10 ml media. After overnight incubation at 37° C. with 5% CO2, the cells were treated with nothing (NT), staurosporine (ST, 1 μM) or erastin (20 μg/mL) for 6 h, washed with 10 mL ice-cold PBS and lysed by passage through a 25-gauge needle (five strokes). Cell lysates were centrifuged at 1850 rpm for 5 min at 4° C. to remove the nuclear fraction. Mitochondria were removed from the soluble cytosolic fraction by pelleting at 10,000 rpm. Supernatant and mitochondrial pellets were solubilized in SDS-PAGE loading buffer and analyzed by western blot using anti-cytochrome c and pan-VDAC antibodies and IR-dye-linked secondary antibodies. […] Fluorescence was detected on a LI-COR Odyssey infrared scanner.
(a) BJ-TERT/LT/ST/RAS^V12 cells were treated with 9 μM erastin A1 for the indicated length of time, and the number of viable cells determined. […] Red fluorescence resulting from reduction of alamar blue was detected on a Victor3 platereader. […] (e) The number of viable cells was quantified under each condition using a hemacytometer. […] BJ-TERT/LT/ST/RAS^V12 (shown in histogram plots, and in line graph as dark diamonds) or BJ-TERT cells (shown in line graph only, light circles) were treated with 4.6-μM erastin A1 and the level of intracellular oxidative species determined. […]

**Q.** With `CC[C@@]1(O)C(=O)OCc2c1cc1n(c2=O)Cc2cc3ccccc3nc2-1` [camptothecin] as the compound, how does the “fragmented nuclei, of total nuclei” value ([1]; Hoechst 33342) read?
**A.** 10%-20%

**Q.** And the nuclear morphology ([1]; fluorescence microscopy)?
**A.** karyorhexis and margination of chromatin were visible

**Q.** What about the PARP1 cleavage (PARP1) of the same compound?
**A.** degraded

**Q.** And the “percentage of cells in the M1 region (Annexin V staining)” value [2]?
**A.** 38%

**Q.** For `CN[C@@H]1C[C@H]2O[C@@](C)([C@@H]1OC)n1c3ccccc3c3c4c(c5c6ccccc6n2c5c31)C(=O)NC4` [staurosporine], which “cytochrome c release from mitochondria” value (cytochrome c) is on record?
**A.** released from mitochondria
